Assay [1] concerns H9c2. Description: Cytoprotective activity against H2O2-induced oxidative damage in rat H9c2 cells assessed as cell viability at 20 uM preincubated for 24 hrs followed by H2O2 treatment for another 1.5 hrs by MTT assay (reference value: 32.52 to 44.40%). Type of assay: functional. The conditions noted are these: time 25.5 hrs, read-out: Activity. A general note: Formazan colour is commonly taken as a measure of viable cells.

In assay [2] the test system is H9c2. Description: Cytoprotective activity against H2O2-induced oxidative damage in rat H9c2 cells assessed as fold reduction in cell viability at 20 uM preincubated for 24 hrs followed by H2O2 treatment for another 1.5 hrs by MTT assay. In kind it is functional. The conditions noted are these: time 25.5 hrs.
Assay [3] relates to H9c2. Description: Protection against H2O2-induced cell damage in rat H9c2 cells assessed as recovery of cell shrinkage at 100 uM. Type of assay: functional, cell-based.
In assay [4] the test system is H9c2. As to the kind of experiment: Antioxidant activity in H2O2-induced oxidative stress in rat H9c2 cells assessed as increase in expression of Nrf2 level at 80 uM measured after 1.5 hrs by Western blotting analysis. Type of assay: functional, cell-based. (Immunoblotting shows a protein as a band on a membrane.)
Assay [5] concerns H9c2. Description: Anti-apoptotic activity in H202 induced rat H9c2 cells assessed as increase in caspase 3 level at 80 uM measured after 1.5 hrs by Western blot analysis. In kind it is functional, cell-based.
Assay [6] has as its system H9c2. Description: Downregulation of H2O2 induced BNP level in rat H9c2 cells at 80 uM measured after 1.5 hrs by qRT-PCR analysis. Type of assay: functional, cell-based. A general note: In qPCR the cycle at which signal appears reflects the starting amount.
Assay [7] relates to H9c2. As to the kind of experiment: Protection against H2O2-induced cell damage in rat H9c2 cells assessed as recovery of cell death at 100 uM. Type of assay: functional, cell-based.
In assay [8] the test system is H9c2. As to the kind of experiment: Anti-apoptotic activity in H202 induced rat H9c2 cells assessed as decrease in Bcl2 level at 80 uM measured after 1.5 hrs by Western blot analysis. Type of assay: functional, cell-based.
The test system of assay [9] is H9c2. Description: Anti-apoptotic activity in H202 induced rat H9c2 cells assessed as increase in caspase 9 level at 80 uM measured after 1.5 hrs by Western blot analysis. Type of assay: functional, cell-based.
Assay [10] has as its system H9c2. Description: Downregulation of H2O2 induced ANP level in rat H9c2 cells at 80 uM measured after 1.5 hrs by qRT-PCR analysis. In kind it is functional, cell-based.
For assay [11], the system named is H9c2. As to the kind of experiment: Anti-apoptotic activity in H202 induced rat H9c2 cells assessed as increase in Bax level at 80 uM measured after 1.5 hrs by Western blot analysis. In kind it is functional, cell-based.
The subject of assay [12] is H9c2. As to the kind of experiment: Antioxidant activity in H2O2-induced oxidative stress in rat H9c2 cells assessed as increase in expression of NQO1 level at 80 uM measured after 1.5 hrs by Western blotting analysis. Type of assay: functional, cell-based.
The subject of assay [13] is H9c2. As to the kind of experiment: Cytoprotective activity against H2O2-induced oxidative damage in rat H9c2 cells assessed as cell viability at 80 uM preincubated for 24 hrs followed by H2O2 treatment for another 1.5 hrs by MTT assay. In kind it is functional, cell-based. The conditions noted are these: time 25.5 hrs.

The source made the active and inactive calls. No cut-off for these calls is given here.

The values that follow come from ChEMBL document CHEMBL5338705, “Discovery of 1,3,4-oxadiazole derivatives containing a bisamide moiety as a novel class of potential cardioprotective agents” (Eur J Med Chem, 2022).

As for `O=C(CSc1nnc(-c2cccc(Cl)c2)o1)NC(=O)Nc1ccccc1`, in the assay with H9c2 [1], the viability at 20 µM came to 42.5%. Also, the “fold change (FC)” value with H9c2 [2] was determined as 1.01.
The matching figures for `O=C(CSc1nnc(-c2ccccc2Cl)o1)NC(=O)Nc1ccccc1`: 40.9% and 0.98.
The matching figures for `O=C(CSc1nnc(-c2ccc(O)cc2)o1)NC(=O)NN1CCCCC1`: 29.2% and 0.74.
For `Cc1ccccc1-c1nnc(SCC(=O)NC(=O)Nc2ccccn2)o1` the same measures were 66.5% and 1.5.
`Cc1cccc(-c2nnc(SCC(=O)NC(=O)Nc3ccccc3)o2)c1`: in the assay on H9c2 [1], the viability at 20 µM came to 46.7%. Moreover, the “fold change (FC)” value in the assay on H9c2 [2] is 1.11.
The matching figures for `O=C(CSC(=S)N1CCNCC1)NC(=O)Nc1ccccc1`: 41.1% and 1.03.
The matching figures for `O=C(Cn1cc(CSc2nnc(-c3ccc(O)cc3)o2)nn1)NC(=O)Nc1ccccn1`: 18.7% and 0.52.
The matching figures for `Cc1ccc(-c2nnc(SCC(=O)NC(=O)Nc3ccccn3)o2)cc1`: 70.9% and 1.6.
In the case of `O=C(CSc1nnc(-c2ccc(O)cc2)o1)NC(=O)Nc1ccccc1`, the viability at 20 µM with H9c2 [1] was 71.7%. Besides, in the assay on H9c2 [2], the “fold change (FC)” value is 1.71.
Consider `O=C(CSc1nnc(-c2ccccc2)o1)NC(=O)Nc1ccccc1Cl`, for which the viability at 20 µM with H9c2 [1] worked out at 34.5%. The “fold change (FC)” value with H9c2 [2] amounted to 1.05.
For `O=C(CSc1nnc(-c2ccccn2)o1)NC(=O)Nc1ccccn1` the same measures were 54% and 1.22.
For `O=C(CSc1nnc(-c2ccc(O)cc2)o1)NC(=O)Nc1cccnc1` the same measures were 64.8% and 1.64.
On to `O=C(CSc1nnc(-c2ccncc2)o1)NC(=O)Nc1ccccc1`, for which the viability at 20 µM in the assay on H9c2 [1] turned out to be 48.5%. For the same compound, the “fold change (FC)” value in the assay with H9c2 [2] came to 1.16.
The matching figures for `O=C(CSc1nnc(-c2ccncc2)o1)NC(=O)Nc1ccccn1`: 45.3% and 1.02.
In the case of `COc1cccc(NC(=O)NC(=O)CSc2nnc(-c3ccccc3)o2)c1`, the outcome in the assay with H9c2 [3], in the assay with H9c2 [4], with H9c2 [5], in the assay with H9c2 [6], in the assay on H9c2 [7] and in the assay on H9c2 [8] was inactive. Moreover, the outcome with H9c2 [9], in the assay on H9c2 [10], in the assay with H9c2 [11], in the assay on H9c2 [12] and in the assay with H9c2 [13] was inactive. In addition, in the assay with H9c2 [1], the viability at 20 µM is 22.6%. Further, the “fold change (FC)” value in the assay on H9c2 [2] was 0.69.
Regarding `O=C(CSc1nnc(-c2ccccc2)o1)NC(=O)Nc1ccccn1`, the viability at 20 µM in the assay with H9c2 [1] is 72.5%. Moreover, the “fold change (FC)” value in the assay with H9c2 [2] stood at 1.79.
The matching figures for `O=C(CSc1nnc(-c2ccccc2)o1)Nc1ccccc1`: 46.6% and 1.09.
Consider `O=C(CSc1nnc(-c2ccccc2)o1)NC(=O)Nc1ccc(Cl)cc1`, for which the viability at 20 µM with H9c2 [1] is 37.6%. Moreover, the “fold change (FC)” value with H9c2 [2] is listed as 1.14.
The matching figures for `O=C(CSc1nnc(-c2ccc(O)cc2)o1)NC(=O)Nc1nccs1`: 36.8% and 0.93.
`O=C(CSc1nnc(-c2ccccn2)o1)NC(=O)Nc1ccccc1`: in the assay with H9c2 [1], the viability at 20 µM worked out at 35.5%. Moreover, in the assay on H9c2 [2], the “fold change (FC)” value came to 0.85.
For `Cc1ccccc1-c1nnc(SCC(=O)NC(=O)Nc2ccccc2)o1` the same measures were 56% and 1.34.
`O=C(CSc1nnc(-c2ccccc2O)o1)NC(=O)Nc1ccccn1`: in the assay with H9c2 [1], the viability at 20 µM worked out at 65.7%. In the assay on H9c2 [2], the “fold change (FC)” value is recorded as 1.48.
The matching figures for `O=C(CSc1nnc(-c2ccccc2Cl)o1)NC(=O)Nc1ccccn1`: 42.6% and 0.96.
The matching figures for `Cc1ccc(-c2nnc(SCC(=O)NC(=O)Nc3ccccc3)o2)cc1`: 57.7% and 1.38.
For `O=C(CSc1nnc(-c2ccc(Cl)cc2)o1)NC(=O)Nc1ccccc1` the same measures were 51.5% and 1.23.
For the compound `O=C(CSc1nnc(-c2cccnc2)o1)NC(=O)Nc1ccccn1`, the viability at 20 µM in the assay with H9c2 [1] is 40.5%. For the same compound, the “fold change (FC)” value in the assay with H9c2 [2] worked out at 0.91.
For `O=C(CSc1nnc(-c2ccc(Cl)cc2)o1)NC(=O)Nc1ccccn1` the same measures were 54.9% and 1.24.
The matching figures for `O=C(CSc1nnc(-c2cccc(Cl)c2)o1)NC(=O)Nc1ccccn1`: 48.4% and 1.09.
For `COc1ccc(NC(=O)CSc2nnc(-c3ccc(O)cc3)o2)cc1` the same measures were 42.9% and 1.
Consider `COc1ccc(NC(=O)NC(=O)CSc2nnc(-c3ccccc3)[nH]2)cc1`, for which the viability at 20 µM in the assay on H9c2 [1] was 64.4%. Moreover, in the assay on H9c2 [2], the “fold change (FC)” value is listed as 1.69.
For `COc1cc(NC(=O)NC(=O)CSc2nnc(-c3ccccc3)o2)cc(OC)c1OC` the same measures were 43% and 1.3.
The matching figures for `COc1ccc(NC(=O)NC(=O)CSc2nnc(-c3ccc(O)cc3)o2)cc1`: 60.5% and 1.68.
For `CC(C)c1ccc(NC(=O)NC(=O)CSc2nnc(-c3ccccc3)o2)cc1` the same measures were 38.9% and 1.18.
In the case of `O=C(CSc1nnc(-c2cccnc2)o1)NC(=O)Nc1ccccc1`, the viability at 20 µM with H9c2 [1] was 39.2%. The “fold change (FC)” value in the assay on H9c2 [2] is 0.93.
For `O=C(CSc1nnc(-c2ccccc2)o1)NC(=O)Nc1cccc(Cl)c1` the same measures were 34% and 1.03.
The matching figures for `COc1ccccc1NC(=O)NC(=O)CSc1nnc(-c2ccccc2)o1`: 47% and 1.43.
For `Cc1ccc(NC(=O)NC(=O)CSc2nnc(-c3ccccc3)o2)cc1` the same measures were 54.8% and 1.67.
With `O=C(CSc1nnc(-c2ccc(O)cc2)o1)Nc1ccccn1`, the viability at 20 µM with H9c2 [1] came to 55.3%. Besides, in the assay with H9c2 [2], the “fold change (FC)” value is reported as 1.54.
For `O=C(CSc1nnc(-c2ccc(O)cc2)o1)NC(=O)NN1CCOCC1` the same measures were 44.2% and 1.12.
On to `O=C(CSc1nnc(-c2ccccc2O)o1)NC(=O)Nc1ccccc1`, for which the viability at 20 µM in the assay on H9c2 [1] was found to be 60.7%. Besides, the “fold change (FC)” value in the assay on H9c2 [2] is 1.45.
The matching figures for `O=C(CSc1nnc(-c2ccc(O)cc2)o1)NC(=O)Nc1ccccn1`: 85.2% and 1.92.
Take `O=C(CSc1nnc(-c2ccc(O)cc2)o1)NC(=O)Nc1ncccn1`: the viability at 20 µM with H9c2 [1] turned out to be 59.1%. The “fold change (FC)” value in the assay on H9c2 [2] came to 1.49.
The matching figures for `O=C(CSc1nnc(-c2ccccc2)o1)Nc1ccccn1`: 41.4% and 0.97.
For `Cc1cccc(-c2nnc(SCC(=O)NC(=O)Nc3ccccn3)o2)c1` the same measures were 53.5% and 1.21.
For `O=C(CSc1nnc(-c2ccccc2)o1)NC(=O)Nc1ccccc1` the same measures were 52.9% and 1.32.
Turning to `COCCCNC(=O)NC(=O)CSc1nnc(-c2ccc(O)cc2)o1`, in the assay with H9c2 [1], the viability at 20 µM turned out to be 69.5%. In the assay on H9c2 [2], the “fold change (FC)” value turned out to be 1.76.
Regarding `COc1ccc(NC(=O)NC(=O)Cn2cc(CSc3nnc(-c4ccccc4)o3)nn2)cc1`, the viability at 20 µM in the assay with H9c2 [1] was 18.4%. Further, the “fold change (FC)” value with H9c2 [2] came out at 0.51.
The matching figures for `COc1ccc(NC(=O)CSc2nnc(-c3ccccc3)o2)cc1`: 52.6% and 1.46.
